Test results reported in patent US12187723B2 (BRISTOL-MYERS SQUIBB COMPANY, priority 2019, dated 2025).

How the values were obtained:
[1] = target: T1, human TLR8 (Homo sapiens, UniProt Q9NR97); test: TLR8 inhibition reporter assay (HEK-Blue SEAP); assay type: cell-based; conditions: HEK-Blue cells overexpressing human TLR8, R848 15.9 μM, 22 hour incubation
T1 construct: host or cells: HEK-Blue cells
T1 sequence (Q9NR97 27-1041): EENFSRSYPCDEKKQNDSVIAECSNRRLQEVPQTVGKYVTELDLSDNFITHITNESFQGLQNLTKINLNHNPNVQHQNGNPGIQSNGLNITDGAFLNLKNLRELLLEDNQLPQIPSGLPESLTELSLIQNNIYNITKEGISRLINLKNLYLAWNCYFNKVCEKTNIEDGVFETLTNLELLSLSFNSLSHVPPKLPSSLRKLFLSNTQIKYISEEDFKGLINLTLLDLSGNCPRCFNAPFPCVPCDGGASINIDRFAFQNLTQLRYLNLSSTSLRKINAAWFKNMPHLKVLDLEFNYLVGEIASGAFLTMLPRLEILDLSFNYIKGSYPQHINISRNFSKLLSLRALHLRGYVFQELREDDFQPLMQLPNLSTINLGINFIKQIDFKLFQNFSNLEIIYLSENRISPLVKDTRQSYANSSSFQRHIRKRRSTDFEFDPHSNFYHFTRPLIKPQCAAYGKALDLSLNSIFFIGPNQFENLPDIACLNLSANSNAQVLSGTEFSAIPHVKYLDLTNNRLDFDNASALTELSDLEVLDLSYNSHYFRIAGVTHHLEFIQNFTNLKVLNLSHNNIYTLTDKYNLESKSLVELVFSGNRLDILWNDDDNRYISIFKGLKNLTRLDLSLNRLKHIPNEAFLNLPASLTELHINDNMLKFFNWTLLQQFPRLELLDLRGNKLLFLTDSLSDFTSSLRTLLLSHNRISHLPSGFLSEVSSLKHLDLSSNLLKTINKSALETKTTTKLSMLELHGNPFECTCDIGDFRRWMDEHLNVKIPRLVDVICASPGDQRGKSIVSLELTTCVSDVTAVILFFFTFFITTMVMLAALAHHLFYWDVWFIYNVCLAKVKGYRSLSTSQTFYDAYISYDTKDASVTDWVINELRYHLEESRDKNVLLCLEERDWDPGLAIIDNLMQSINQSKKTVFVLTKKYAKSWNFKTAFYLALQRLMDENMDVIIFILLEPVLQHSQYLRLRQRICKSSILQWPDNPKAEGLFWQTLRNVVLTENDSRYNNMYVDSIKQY
Procedure, shortened: (§1)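 Screening used HEK-Blue cells overexpressing one human TLR (7, 8 or 9) and an IFN-β minimal promoter–NF-κB/AP-1 SEAP construct. Stimulation lasted 22 h at 37 °C with receptor-specific agonist: gardiquimod, R848 or ODN2006 at 7.5 μM, 15.9 μM and 5 nM.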

[2] = target: T2, human TLR9 (Homo sapiens, UniProt Q9NR96); test: TLR9 inhibition reporter assay (HEK-Blue SEAP); assay type: cell-based; conditions: HEK-Blue cells overexpressing human TLR9, ODN2006 5 nM, 22 hour incubation
T2 construct: host or cells: HEK-Blue cells
T2 sequence (Q9NR96 26-1032): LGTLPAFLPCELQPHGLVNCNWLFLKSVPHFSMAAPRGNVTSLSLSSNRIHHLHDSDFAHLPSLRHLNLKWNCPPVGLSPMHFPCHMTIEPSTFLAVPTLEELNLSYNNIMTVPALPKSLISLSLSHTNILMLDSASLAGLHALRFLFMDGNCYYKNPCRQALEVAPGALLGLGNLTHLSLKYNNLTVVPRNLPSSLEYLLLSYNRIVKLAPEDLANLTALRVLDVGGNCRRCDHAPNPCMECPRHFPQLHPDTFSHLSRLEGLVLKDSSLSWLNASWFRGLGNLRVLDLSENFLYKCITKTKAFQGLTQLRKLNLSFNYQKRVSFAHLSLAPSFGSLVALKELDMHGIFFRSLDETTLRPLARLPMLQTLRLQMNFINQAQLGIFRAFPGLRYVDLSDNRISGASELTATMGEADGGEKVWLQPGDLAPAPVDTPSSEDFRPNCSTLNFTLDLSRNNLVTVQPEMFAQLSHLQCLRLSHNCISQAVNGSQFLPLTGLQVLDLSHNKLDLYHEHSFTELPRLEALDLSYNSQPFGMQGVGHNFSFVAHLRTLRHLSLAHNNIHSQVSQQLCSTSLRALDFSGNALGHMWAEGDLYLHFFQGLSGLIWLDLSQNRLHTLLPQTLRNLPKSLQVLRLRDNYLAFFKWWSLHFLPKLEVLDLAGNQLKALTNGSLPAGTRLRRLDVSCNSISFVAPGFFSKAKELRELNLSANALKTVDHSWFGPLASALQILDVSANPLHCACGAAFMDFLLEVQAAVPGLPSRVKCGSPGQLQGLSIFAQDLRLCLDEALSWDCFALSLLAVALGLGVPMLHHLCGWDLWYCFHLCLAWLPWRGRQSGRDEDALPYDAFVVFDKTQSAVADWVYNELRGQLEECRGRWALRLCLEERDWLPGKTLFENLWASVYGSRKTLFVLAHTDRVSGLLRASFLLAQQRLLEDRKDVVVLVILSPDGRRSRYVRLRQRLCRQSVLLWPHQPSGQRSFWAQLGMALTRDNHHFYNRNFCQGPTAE
Procedure, shortened: as §1

Cc1c(-c2cc3[nH]c(=O)n(C4CCC(N5CC(F)C5)CC4)c3cc2C(C)C)cn2ncnc2c1C (stereo not drawn) [Example 279, 5-(7,8-dimethyl-[1,2,4]triazolo[1,5-a]pyridin-6-yl)-1-(4-(3-fluoroazetidin-1-yl)cyclohexyl)-6-isopropyl-1,3-dihydro-2H-benzo[d]imidazol-2-one]
IC50 [1]: 1.52 nM | IC50 [2]: 10800 nM

Cc1c(-c2cc3[nH]c(=O)n(C4CCC(N5CC(F)C5)CC4)c3cc2C(C)C)cn2ncnc2c1C (stereo not drawn) [Example 280, 5-(7,8-dimethyl-[1,2,4]triazolo[1,5-a]pyridin-6-yl)-1-(4-(3-fluoroazetidin-1-yl)cyclohexyl)-6-isopropyl-1,3-dihydro-2H-benzo[d]imidazol-2-one]
IC50 [1]: 2.75 nM | IC50 [2]: 20600 nM

COc1cc(-c2cc3[nH]c(=O)n(C4CCC(N5CCC(OC)C5)CC4)c3cc2C(C)C)cn2ncnc12 (stereo not drawn) [Example 284, 6-isopropyl-5-(8-methoxy-[1,2,4]triazolo[1,5-a]pyridin-6-yl)-1-(4-(3-methoxypyrrolidin-1-yl)cyclohexyl)-1,3-dihydro-2H-benzo[d]imidazol-2-one]
IC50 [1]: 0.18 nM | IC50 [2]: 3560 nM

COc1cc(-c2cc3[nH]c(=O)n(C4CCC(N5CCC(OC)C5)CC4)c3cc2C(C)C)cn2ncnc12 (stereo not drawn) [Example 285, 6-isopropyl-5-(8-methoxy-[1,2,4]triazolo[1,5-a]pyridin-6-yl)-1-(4-(3-methoxypyrrolidin-1-yl)cyclohexyl)-1,3-dihydro-2H-benzo[d]imidazol-2-one]
IC50 [1]: 0.13 nM | IC50 [2]: 8310 nM

COc1cc(-c2cc3[nH]c(=O)n(C4CCC(N5CC[C@H](F)C5)CC4)c3cc2C(C)C)cn2ncnc12 (stereo partly drawn) [Example 286, (S)-1-(4-(3-fluoropyrrolidin-1-yl)cyclohexyl)-6-isopropyl-5-(8-methoxy-[1,2,4]triazolo[1,5-a]pyridin-6-yl)-1,3-dihydro-2H-benzo[d]imidazol-2-one]
IC50 [1]: 0.9 nM | IC50 [2]: 4280 nM

COc1cc(-c2cc3[nH]c(=O)n(C4CCC(N5CC[C@H](F)C5)CC4)c3cc2C(C)C)cn2ncnc12 (stereo partly drawn) [Example 287, (S)-1-(4-(3-fluoropyrrolidin-1-yl)cyclohexyl)-6-isopropyl-5-(8-methoxy-[1,2,4]triazolo[1,5-a]pyridin-6-yl)-1,3-dihydro-2H-benzo[d]imidazol-2-one]
IC50 [1]: 1.66 nM | IC50 [2]: 10900 nM
